Data: US8735406B2, “8-oxodihydropurine derivative” (Dainippon Sumitomo Pharma Co., Ltd., priority 2009, dated 2014)
Read-outs that look alike come from different tables or passages of the source.

Molecular target: T1, FAAH (Rattus norvegicus, UniProt P97612)
T1 construct: Preparation of Rat Brain Membranes Preparations (FAAH Enzyme Solution); from tissue; host or cells: rat cerebrum (brain membrane preparation)
T1 sequence (P97612 1-579): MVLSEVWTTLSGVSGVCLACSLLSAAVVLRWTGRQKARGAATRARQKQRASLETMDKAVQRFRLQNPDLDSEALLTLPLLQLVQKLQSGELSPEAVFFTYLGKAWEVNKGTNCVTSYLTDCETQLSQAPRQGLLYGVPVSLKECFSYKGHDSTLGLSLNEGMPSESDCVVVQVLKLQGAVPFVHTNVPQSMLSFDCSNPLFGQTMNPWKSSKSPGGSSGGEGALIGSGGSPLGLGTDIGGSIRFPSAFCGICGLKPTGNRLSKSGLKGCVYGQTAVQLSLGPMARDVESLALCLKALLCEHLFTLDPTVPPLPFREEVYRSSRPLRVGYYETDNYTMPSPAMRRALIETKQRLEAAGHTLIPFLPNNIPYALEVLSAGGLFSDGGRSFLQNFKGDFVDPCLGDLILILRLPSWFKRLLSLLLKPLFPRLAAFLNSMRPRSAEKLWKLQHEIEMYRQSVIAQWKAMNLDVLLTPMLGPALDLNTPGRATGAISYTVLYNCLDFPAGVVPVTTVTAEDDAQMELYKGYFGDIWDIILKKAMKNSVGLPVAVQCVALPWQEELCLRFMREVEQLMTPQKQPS
Assay: Determination of FAAH inhibitory activity in rat (rat brain membrane preparations, [3H]-anandamide hydrolysis)
Type: biochemical
Conditions: for IC50: read-out: FAAH Inhibition IC50
Outline: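 Compounds tested from 0.1 nM to 1 μM to derive IC50 against FAAH hydrolysis in rat brain membrane preparations (100 μg/mL). A 10-min 37 °C preincubation was followed by 10 min with [3H]-anandamide (2 nM) mixed with 2 μM unlabelled anandamide. Radioactive ethanolamine was extracted into the water/methanol layer and counted.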

[1] = rat brain membrane preparations, 100 nM test substance, read-out: FAAH Inhibition, Inhibition Rate at 100 nM
[2] = rat brain membrane preparations, test substance 0.1 nM to 1 μM
[3] = at 100 nM, rat brain membrane preparations, read-out: FAAH Inhibition Inhibition Rate at 100 nM
[4] = rat brain membrane preparations

| inhibition at 0.1 µM [1] | IC50 [2] | inhibition at 0.1 µM [3] | IC50 [4] | SMILES | inhibition at 0.1 µM (read-out: FAAH Inhibition, Inhibition Rate at 100 nM) |
| --- | --- | --- | --- | --- | --- |
| 98% | 23 nM | – | – | Cn1c(=O)n(C(=O)N2CCCC2)c2nc(/C=C/c3cccc(F)c3)ncc21 [Example 246, 2-[(E)-2-(3-Fluorophenyl)ethenyl]-7-methyl-9-(pyrrolidin-1-ylcarbonyl)-7,9-dihydro-8H-purine-8-one] | – |
| 35% | > 100 nM | – | – | Cn1c(=O)n(C(=O)N2CCCC2)c2cnc(Cc3cccc(-c4ccccc4)c3)nc21 [compound 272] | – |
| – | – | 88% | 24 nM | COCc1ncc2c(n1)n(C1CC1)c(=O)n2C(=O)N1CC(c2ccccc2)C1 [compound 663] | – |
| 78% | 58 nM | – | – | Cn1c(=O)n(C(=O)N2CCCC2)c2cnc(-c3ccc(OC(F)(F)F)cc3)nc21 [compound 177] | – |
| – | – | 89% | 9 nM | CN(C)C(=O)n1c(=O)n(C)c2cnc(CCOc3cccc(C(F)(F)F)c3)nc21 [compound 642] | – |
| 54% | 74 nM | – | – | COCc1ncc2c(n1)n(C)c(=O)n2C(=O)N1CC(c2ccccc2C)C1 [compound 442] | – |
| 96% | 41 nM | – | – | CC(C)Cn1c(=O)n(C(=O)N2CCCC2)c2cnc(-c3ccccc3)nc21 [Example 307] | – |
| 84% | 9 nM | – | – | Cn1c(=O)n(C(=O)N2CCC2)c2nc(COc3ccc(F)cc3)ncc21 [Example 426] | – |
| – | – | 78% | 10 nM | Cn1c(=O)n(C(=O)N2CC(c3ccc(F)cc3)C2)c2cnc(C3CC3)nc21 [compound 621] | – |
| 84% | 21 nM | – | – | Cn1c(=O)n(C(=O)N2CCC2)c2nc(CCc3cccc(C(F)F)c3)ncc21 [compound 594] | – |
| 107% | 4 nM | – | – | COc1cccc(-c2ncc3c(n2)n(C)c(=O)n3C(=O)N(C)CCC2CCOCC2)c1 [Example 117, 2-(3-Methoxyphenyl)-N,9-dimethyl-8-oxo-N-[2-(tetrahydro-2H-pyran-4-yl)ethyl]-8,9-dihydro-7H-purine-7-carboxamide] | – |
| 100% | 4 nM | – | – | CCN(C)C(=O)n1c(=O)n(C)c2nc(-c3ccnc(F)c3)ncc21 [Example 221, N-Ethyl-2-(2-fluoropyridin-4-yl)-N,9-dimethyl-8-oxo-8,9-dihydro-7H-purine-7-carboxamide] | – |
| 80% | 31 nM | – | – | Cn1c(=O)n(C(=O)N2CCC2)c2cnc(Cc3ccc(Cl)cc3)nc21 [compound 378] | – |
| 99% | 23 nM | – | – | COc1cccc(-c2ncc3c(n2)n(C)c(=O)n3C(=O)N(C)Cc2cccc(F)c2)c1 [Example 72, N-(3-Fluorobenzyl)-2-(3-methoxyphenyl)-N,9-dimethyl-8-oxo-8,9-dihydro-7H-purine-7-carboxamide] | – |
| 74% | 33 nM | – | – | CN(C)C(=O)n1c(=O)n(C)c2cnc(-c3cccc(OCC(F)F)c3)nc21 [Example 335, 2-[3-(2,2-Difluoroethoxy)phenyl]-N,N,7-trimethyl-8-oxo-7,8-dihydro-9H-purine-9-carboxamide] | – |
| 97% | 44 nM | – | – | Cn1c(=O)n(C(=O)N2CCCC2)c2cnc(-c3ccc(-c4ccccc4)cc3)nc21 [compound 179] | – |
| – | – | 104% | 7 nM | CCCc1ncc2c(n1)n(C)c(=O)n2C(=O)N1CC(c2cccc(F)c2)C1 [compound 625] | – |
| 100% | 6 nM | – | – | COc1cccc(-c2ncc3c(n2)n(C)c(=O)n3C(=O)N2CCC(CCc3ccc(F)cc3)CC2)c1 [Example 96, 7-({4-[2-(4-Fluorophenyl)ethyl]piperidin-1-yl}carbonyl)-2-(3-methoxyphenyl)-9-methyl-7,9-dihydro-8H-purine 8-one] | – |
| 89% | 52 nM | – | – | Cn1c(=O)n(C(=O)N2CCCC2)c2nc(-c3ccc(-c4ccccc4)cc3)ncc21 [Example 239, 2-(Biphenyl-4-yl)-7-methyl-9-(pyrrolidin-1-ylcarbonyl)-7,9-dihydro-8H-purine-8-one] | – |
| 103% | < 10 nM | – | – | Cn1c(=O)n(C(=O)N2CCCC2)c2cnc(-c3cccc(N)c3)nc21 [Example 317, 2-(3-aminophenyl)-9-methyl-7-(pyrrolidin-1-ylcarbonyl)-7,9-dihydro-8H-purine-8-one] | – |
| 80% | 94 nM | – | – | CN(C)C(=O)n1c(=O)n(C)c2cnc(CCc3ccc(C4CC4)c(F)c3)nc21 [compound 524] | – |

| inhibition at 0.1 µM [1] | IC50 [2] | inhibition at 0.1 µM [3] | IC50 [4] | SMILES | inhibition at 0.1 µM (read-out: FAAH Inhibition, Inhibition Rate at 100 nM) |
| --- | --- | --- | --- | --- | --- |
| 33% | > 100 nM | – | – | Cn1c(=O)n(C(=O)N2CCCCCC2)c2cnc(-c3ccccc3)nc21 [Example 41] | – |
| 42% | 164 nM | – | – | Cn1c(=O)n(C(=O)N2CCC2)c2nc(-c3ccccc3)ncc21 [compound 352] | – |
| 101% | 10 nM | – | – | CCCc1ccc(CCc2ncc3c(n2)n(C(=O)N2CCC2)c(=O)n3C)cc1 [compound 562] | – |
| 63% | 75 nM | – | – | CCOC(=O)CCc1ncc2c(n1)n(C)c(=O)n2C(=O)N1CCCC1 [Example 276] | – |
| – | – | 87% | 27 nM | CCCn1c(=O)n(C(=O)N(C)C)c2nc(CCc3ccc(F)cc3)ncc21 [Example 648, 2-[2-(4-Fluorophenyl)ethyl]-N,N-dimethyl-8-oxo-7-propyl-7,8-dihydro-9H-purine-9-carboxamide] | – |
| 99% | < 1 nM | – | – | CN(CCOc1ccc(Cl)cc1)C(=O)n1c(=O)n(C)c2nc(-c3cccnc3)ncc21 [Example 146, N-[2-(4-Chlorophenoxy)ethyl]-N,9-dimethyl-8-oxo-2-(pyridin-3-yl)-8,9-dihydro-7H-purine-7-carboxamide] | – |
| 89% | 5 nM | – | – | Cn1c(=O)n(C(=O)N2CCCC2)c2nc(/C=C/c3ccc(C(F)(F)F)cc3)ncc21 [Example 243, 7-methyl-9-(pyrrolidin-1-ylcarbonyl)-2-{(E)-2-[4-(trifluoromethyl)phenyl]ethenyl}-7,9-dihydro-8H-purine-8-one] | – |
| 99% | 10 nM | – | – | Cc1cc(CCc2ncc3c(n2)n(C(=O)N(C)C)c(=O)n3C)ccc1F [compound 509] | – |
| 75% | 63 nM | – | – | COc1cccc(CCc2ncc3c(n2)n(C)c(=O)n3C(=O)N2CCCC2)c1 [compound 15] | – |
| 80% | 24 nM | – | – | CN(C)C(=O)n1c(=O)n(C)c2cnc(COc3ccccc3OC(F)(F)F)nc21 [Example 430] | – |
| 88% | 98 nM | – | – | Cn1c(=O)n(C(=O)N2CCC2)c2nc(CCCOc3ccccc3)ncc21 [Example 400] | – |
| 113% | 10 nM | – | – | CCOCc1ncc2c(n1)n(C)c(=O)n2C(=O)N1CC(c2cccc(F)c2)C1 [Example 462, 2-(Ethoxymethyl)-7-{[3-(3-fluorophenyl)azetidin-1-yl]carbonyl}-9-methyl-7,9-dihydro-8H-purine-8-one] | – |
| 59% | 86 nM | – | – | Cn1c(=O)n(C(=O)N2CCCC2)c2cnc(/C=C/c3ccc(C(F)(F)F)cc3)nc21 [compound 3] | – |
| 66% | 67 nM | – | – | CCN(C)C(=O)n1c(=O)n(C)c2cnc(CCc3cccc(OC)c3)nc21 [compound 557] | – |
| 78% | 41 nM | – | – | Cc1ccccc1-c1ncc2c(n1)n(C)c(=O)n2C(=O)N1CCCC1 [compound 169] | – |
| 96% | 42 nM | – | – | Cn1c(=O)n(C(=O)N2CCCC2)c2cnc(-c3ccc(C(F)(F)F)cc3)nc21 [compound 178] | – |
| 99% | 10 nM | – | – | CCN(C)C(=O)n1c(=O)n(C)c2nc(-c3ccccc3)ncc21 [Example 2, N-ethyl-N,9-dimethyl-8-oxo-2-phenyl-8,9-dihydro-7H-purine-7-carboxamide] | – |
| 80% | 32 nM | – | – | Cn1c(=O)n(C(=O)N2CCC2)c2cnc(Cc3cccc(F)c3)nc21 [compound 372] | – |
| 41% | > 100 nM | – | – | CCN(CC)C(=O)n1c(=O)n(C)c2nc(-c3cccc(OC)c3)ncc21 [Example 70] | – |
| 100% | 10 nM | – | – | CCc1ccccc1CCc1ncc2c(n1)n(C(=O)N(C)C)c(=O)n2C [compound 515] | – |
| 99% | 18 nM | – | – | Cn1c(=O)n(C(=O)N2CCCC2)c2cnc(-c3ccnc(Cl)c3)nc21 [Example 214, 2-(2-Chloropyridin-4-yl)-9-methyl-7-(pyrrolidin-1-ylcarbonyl)-7,9-dihydro-8H-purine-8-one] | – |

| SMILES | inhibition at 0.1 µM [1] | IC50 [2] | inhibition at 0.1 µM [3] | IC50 [4] | inhibition at 0.1 µM (read-out: FAAH Inhibition, Inhibition Rate at 100 nM) |
| --- | --- | --- | --- | --- | --- |
| COc1cccc(-c2ncc3c(n2)n(C)c(=O)n3C(=O)N2CCN(Cc3ccc(Cl)cc3)CC2)c1 [Example 86, 7-{[4-(4-Chlorobenzyl)piperazin-1-yl]carbonyl}-2-(3-methoxyphenyl)-9-methyl-7,9-dihydro-8H-purine-8-one] | – | 22 nM | – | – | 96% |
